Experimental data reported in article PMC10329651, “ATPase activity of DFCP1 controls selective autophagy” (Nature Communications, 2023).

What was measured:
DFCP1-FL = target: T1, DFCP1-FL (Homo sapiens, UniProt Q9HBF4); assay: malachite green phosphate release (Biomol Green); format: biochemical; details: 0.5 mM ATP, 10 mM MgCl2, 10 µM ZnCl2, pH 7.5, 37 °C, 30 min; with and without liposomes
T1 construct: gene ZFYVE1; full length, His6-tagged, Sf9 baculovirus
T1 sequence (Q9HBF4 1-777): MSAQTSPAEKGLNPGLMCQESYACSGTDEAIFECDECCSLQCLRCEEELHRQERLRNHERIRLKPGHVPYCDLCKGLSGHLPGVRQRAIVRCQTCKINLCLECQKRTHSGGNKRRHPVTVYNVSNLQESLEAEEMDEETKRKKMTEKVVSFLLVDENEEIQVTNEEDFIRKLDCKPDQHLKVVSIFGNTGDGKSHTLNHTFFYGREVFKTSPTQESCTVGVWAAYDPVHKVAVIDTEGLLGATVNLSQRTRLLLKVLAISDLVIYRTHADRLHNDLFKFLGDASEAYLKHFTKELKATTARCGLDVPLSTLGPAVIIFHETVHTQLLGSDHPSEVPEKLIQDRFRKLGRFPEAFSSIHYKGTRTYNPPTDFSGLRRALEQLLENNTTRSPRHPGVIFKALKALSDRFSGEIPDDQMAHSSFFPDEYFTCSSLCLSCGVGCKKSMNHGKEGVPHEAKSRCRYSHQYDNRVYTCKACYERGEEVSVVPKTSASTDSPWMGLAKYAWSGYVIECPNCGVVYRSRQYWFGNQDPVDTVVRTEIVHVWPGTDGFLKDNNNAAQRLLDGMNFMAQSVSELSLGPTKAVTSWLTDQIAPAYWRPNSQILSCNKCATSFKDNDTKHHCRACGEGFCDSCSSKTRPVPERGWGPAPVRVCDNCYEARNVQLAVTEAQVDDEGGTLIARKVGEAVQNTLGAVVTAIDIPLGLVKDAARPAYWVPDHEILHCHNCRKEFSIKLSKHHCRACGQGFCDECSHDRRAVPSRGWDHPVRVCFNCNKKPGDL

DFCP1 WT (aa 1–410) = target: T2, DFCP1 WT (aa 1–410) (Homo sapiens, UniProt Q9HBF4); assay: size exclusion chromatography, nucleotide-dependent dimerization; format: binding; details: 400 µM nucleotide, 50 mM MgCl2; non-hydrolysable ATP analogue
T2 construct: gene ZFYVE1; N-terminal ATPase domain, aa 1-410, His6-MBP fusion (pET-His6-MBP-TEV-LIC, E. coli Rosetta2(DE3))
T2 sequence (Q9HBF4 1-410): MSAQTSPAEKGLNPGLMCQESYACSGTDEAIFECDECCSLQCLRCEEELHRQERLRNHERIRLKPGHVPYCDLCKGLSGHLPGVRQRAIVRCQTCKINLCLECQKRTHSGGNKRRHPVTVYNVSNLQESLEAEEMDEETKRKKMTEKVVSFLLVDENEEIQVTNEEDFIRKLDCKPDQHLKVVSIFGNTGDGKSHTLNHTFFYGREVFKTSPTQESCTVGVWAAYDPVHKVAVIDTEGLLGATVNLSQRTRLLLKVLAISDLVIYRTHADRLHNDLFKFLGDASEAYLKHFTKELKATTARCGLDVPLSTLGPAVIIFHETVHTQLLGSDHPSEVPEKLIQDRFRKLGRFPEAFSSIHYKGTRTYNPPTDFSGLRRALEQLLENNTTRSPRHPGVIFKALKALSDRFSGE

[1] = target: the molecule itself; assay: SEC; protein loaded with 400 µM ATPγS for 20 min at RT in exchange buffer (50 mM Tris, 150 mM NaCl, 50 mM MgCl2, 10% glycerol, 1 mM TCEP); Superdex 200 Increase 10/300 GL, isocratic elution at 4 °C, 0.25 ml/min; molecular weights relative to a Bio-Rad gel filtration standard

Nc1ncnc2c1ncn2[C@@H]1O[C@H](COP(=O)(O)OP(=O)(O)OP(=O)(O)O)[C@@H](O)[C@H]1O [ATP]
malachite green phosphate release (Biomol Green) (DFCP1-FL): Addition of liposomes to purified full-length DFCP1 resulted in a modest, but significant increase

Nc1ncnc2c1ncn2[C@@H]1O[C@H](COP(=O)(O)OP(=O)(O)OP(O)(O)=S)[C@@H](O)[C@H]1O [ATPγS]
size exclusion chromatography, nucleotide-dependent dimerization (DFCP1 WT (aa 1–410)): ADP-bound DFCP1 migrated as a monomer, ATPγS-loaded DFCP1 migrated as dimer

B1: His6-MBP-DFCP1 WT (aa 1-410) (domain or fragment, UniProt Q9HBF4 1-410, looked up)
chain: T2 sequence (Q9HBF4 1-410)
notes: Loaded with ADP or ATPγS before size exclusion chromatography; dimer with ATPγS, monomer with ADP; The vector has a TEV site, but no cleavage is described; also called DFCP1 N-terminus; DFCP1 ATPase domain; not shown: His6, N-terminal, kept; MBP, N-terminal, kept
stoichiometry N [1]: 2
